Patent US20060198882A1, “Stable liposomes or micelles comprising a sphinolipid and a peg-lipopolymer” (priority 2003, published 2006)
“And” between values parts separate entries of the source, which are not always exact repeats. Equal values may be shown once. Read-outs that look alike come from different tables or passages of the source.

Experiments:
[1] = Partition in the two phases of the Dole system; format: physicochemical
Protocol: The distribution of the C18 sphingosine-based ceramides with different acyl chain lengths and of DMS between the polar phase and respectively less polar phase (as defined below) of the Dole two phase system was determined. […] The different ceramides included: short (C2 Cer and C4 Cer), medium (C6 Cer and C8 Cer), long (C16 Cer). […] In: Liposome Technology 2nd Edn., G Gregoriadis (Ed.) CRC Press, Boca Raton, 1993, vol. 1, pp: 527-616]. The amount of each of the lipids used in each of the two phases was measured by thin-layer chromatography (TLC). For ceramide quantification TLC was developed in a solvent system containing chloroform/methanol (95:5 v/v). For DMS quantification TLC was developed in a solvent system containing chloroform/methanol/ammonia (89/9/2 v/v). Further, the TLC plate was sprayed with Copper sulfate reagent composed of 100 g anhydrous copper sulfate containing 80 ml of phosphoric acid (85%), %) dissolved in 600 ml of DDW. Copper sulphate reagent was applied to the plates by spraying, then heated and lipids appeared as dark brown spot. […] Quantity of ceramides in each phase was calculated from a standard curve of appropriate ceramide. […] (1993)Supra]. The distribution between the two Dole system phases was determined by the equation (as exemplified for ceramide): [formula] [formula] Where Kp denotes the partition coefficient of a given lipid or amphiphile referred to in the equation as lipid; Cer denotes ceramide; up is an abbreviation for the heptane rich low polarity upper phase and lp is an abbreviation for the polar isopropanol water rich lower phase.

[2] = Surface-pressure area isotherms; format: physicochemical; settings: for minimal area per molecule: constant pressure of 20 mN/m; for collapse point pressure of monolayer: pure water sub-phase; for Area/molecule: table, monolayer on pure water sub-phase
Protocol: The tested ceramides (C2 Cer, C4 Cer, C6 Cer, C8 Cer, C16 Cer) were dried in vacuum overnight, weighted and dissolved in hexane/isopropanol (3:2 vol.) to make the following stock solutions.
The surface-pressure/area isotherms were obtained on pure water sub-phase (similar isotherms were obtained on 140 mM NaCl). Barrier speed during compression was […] for all monolayers.
The minimal area per molecule of different ceramides (C2 Cer, C4 Cer, C6 Cer, C8 Cer, C16 Cer) was calculated at the constant pressure of 20 mN/m. […] The area per molecule of C2 Cer, C4 Cer, C8 Cer, C16 Cer was about 38, 46, 45.5, and 37.5^2, respectively.

C-26 = test: Methylene blue assay of cell survival; format: cell-based, human; settings: Table 8B
Description: (§1) Several tumor cell lines in monolayers were used. A human ovarian carcinoma cell line (OV-1063), established at the Hadassah University Hospital, a human colon carcinoma cell line (C-26), a DOX-sensitive M-109S ([…]), and a DOX-resistant, M-109R ([…]). All cell lines were maintained in RPMI-1640 medium supplemented with 10% FCS, antibiotics, and glutamine. All culture medium components were purchased from Biological Industries (Beit-HaEmek, Israel). Both cell lines were maintained at 37° C. in a water-jacketed CO2 incubator.
(§2) a) Various ceramides (Cer) with different chain lengths: short (C2 Cer and C4 Cer), medium (C6 Cer and C8 Cer), and long (C16 Cer) were first dissolved in 100% ethanol to a concentration of 30 mM, added to a serum-containing medium and mixed immediately. The final ethanol concentration in the serum-containing culture medium ranged from 0.1-0.5% (depending on the type of ceramide (Cer)).
(§3) b) Various ceramides with different chain lengths: short C2 Cer, medium C6 Cer, and long C16 Cer were dissolved in ethanol:dodecane (98:2 v/v) to a concentration of 30 mM and added to serum-free medium and mixed. Final concentrations of the ethanol and dodecane in the culture medium containing 10% of FCS ranged from 0.098-0.49% and 0.002-0.01%, respectively, depending on the type of ceramide.
(§4) The cytotoxicity of the examined assemblies comprising ceramide was tested by the methylene blue ([…]) staining assay [Gorodetsky, R. et al. Int. J. Cancer. 75:635-642 (1998)]. A known number of exponentially growing cells in 200 μL of medium were plated in 96-microwell, flat-bottomed plates. For each of the variants tested, 4 wells were used. Following 24 hr of incubation in culture, 20 μL of different concentrations of the examined assemblies were added to each well containing untreated cells.
(§5) The following controls were used: Citrate buffer (5 mM, pH 7); Ethanol solution in medium RPMI 1640 (final concentration of 0.1%); A solution RPMI 1640 of ethanol:dodecane (98:2 […]) at a final concentration of 0.1% and 0.2%, respectively.
(§6) Cells were exposed to assemblies for 4, 24, 72 or 96 hr. At the end of assembly exposure, for a fixed time interval, the drug-treated cells, as well as parallel control cells, were washed, and the incubation continued in fresh medium until termination of the experiment. Following 72 hr or 96 hr of growth, cells were fixed by adding 50 μL of 2.5% glutaraldehyde to each well for 15 min. Fixed cells were rinsed 10 times with deionized water and once with borate buffer (0.1 M, pH 8.5), dried, and stained with MB (100 μL of 1% solution in 0.1 M borate buffer, pH 8.5) for 1 h at room temperature (r.t.). Stained cells were rinsed thoroughly with de-ionized water to remove any non-cell-bound dye and then dried. The MB bound to the fixed cells was extracted by incubation at 37° C. with 200 μL of 0.1 N HCl for 1 h, and the net optical density of the dye in each well was determined by a plate spectrophotometer (Labsystems Multyskan Bichromatic, Finland) at 620 nm.

OV-1063 = test: Methylene blue assay of cell survival; format: cell-based, human; settings: Table 8B
Description: as §1, §2, §3, §4, §5, §6

C-26 cells = test: Apoptosis by chromatin morphology (Hoechst-33342, confocal microscopy); format: cell-based, human; settings: 24 hr
Protocol: (§7) a) The morphology of chromatin was assessed by staining with Hoechst-33342 obtained from Calbiochem (La Jolla, Calif.), a molecule which when reside in the minor groove of the DNA strand enhance its fluorescence intensity and, therefore, it is preferentially stains dsDNA [Jouvet, P. Mol. Biol. Cell 11:1919-1932 (2000)]. Briefly, samples containing 5*10^5 cells were cultured on 6-well plates covered with a glass coverslip. After treatment of cells with IC50 of drugs, cells were washed with PBS and fixated with 4% formaldehyde. After that cells were stained with Hoechst-33342 (5 μg/ml) and washed. Thereafter, glass coverslip was placed on a glass slide and photographed using a CLMS.

OV-1063 cells = test: as above; format: cell-based, human; settings: 24 hr
Protocol: as §7

[3] = Partition in the two phases of the Dole system; format: physicochemical; remark: listed apart in the source
[4] = read-out: IC50 (μM), 24 hr C-26
[5] = read-out: IC50 (μM), 72 hr C-26
[6] = read-out: IC50 (μM), 4 hr OV-1063
[7] = read-out: IC50 (μM), 24 hr OV-1063
[8] = read-out: IC50 (μM), 72 hr OV-1063

Kp (heptane rich/isopropanol and water rich partition coefficient) [1] | % of lipid in heptane-rich upper phase ([1]; Dole two phase system) | % of lipid in isopropanol/water lower phase ([1]; Dole two phase system) | monolayer stability [2] | minimal area per molecule [2] | collapse point pressure of monolayer [2] | Area/molecule [2] | Liposome formation (being a liposome forming lipid by itself) [3] | Kp (heptane rich/isopropanol and water rich partition coefficient) ([1]; Dole two phase system) | Compound | IC50 (C-26; read-out: IC50 (μM), 4 hr C-26) | IC50 (C-26; [4]) | IC50 (C-26; [5]) | IC50 (OV-1063; [6]) | IC50 (OV-1063; [7]) | IC50 (OV-1063; [8]) | Apoptotic C-26 cells (% of total cell number), 24 hr (C-26 cells) | Apoptotic OV-1063 cells (% of total cell number), 24 hr (OV-1063 cells)
0.92 | 32% and 31.5% | 68.5% | almost as stable as all the others | ~46 Å^2 | about 42 mN/m | 46 A^2 | No | – | CCCCCCCCCCCCC/C=C/[C@@H](O)[C@H](CO)NC(=O)CCC [C4Cer, N-tetranoyl-D-erythro-sphingosine] | 15.5 ± 3.5 µM | 6.25 ± 0.35 µM | 3.75 ± 0.35 µM | 10 ± 2.7 µM | 5.9 ± 0.14 µM | 3.95 ± 0.6 µM | 10% | 58%
5.25 | 72% | 28% | – | ~45.5 Å^2 | about 42 mN/m | 45.5 A^2 | No | – | CCCCCCCCCCCCC/C=C/[C@@H](O)[C@H](CO)NC(=O)CCCCCCC [C8Cer, N-octanoyl-D-erythro-sphingosine] | > 40 µM | 23 ± 1.4 µM | 21.5 ± 2.1 µM | > 40 µM | 23.7 ± 1 µM | 19 ± 1.4 µM | – | –
– | 15.2% | 84.8% | – | – | – | – | Yes | 0.35 | Egg phosphatidylcholine [EPC] | – | – | – | – | – | – | – | –
– | 36% | 64% | – | – | – | – | Yes | 1.13 | hydrogenated soybean phosphatidylcholine [HSPC] | – | – | – | – | – | – | – | –
